According to patent US11566022B2, “3-(5-methoxy-1-oxoisoindolin-2-yl)piperidine-2,6-dione derivatives and uses thereof” (NOVARTIS AG, priority 2019, dated 2023):

Molecular target: HiBit-WIZ fusion protein (Homo sapiens, UniProt O95785+Q96SW2)
Assay: Quantification of WIZ protein levels in HiBit tag fusion protein assay (WIZ HiBit assay in 293T cells)
Format: cell-based
Parameters: Dmax: dose or concentration left out as unconfirmed
Conditions: for Dmax / remaining activity at up to 25 µM: HEK-293T, 293T cells; for Dmax: 100 minus Amax, read-out: % degradation of WIZ (100-Amax); for remaining activity at up to 25 µM: DMSO-normalized, curve-fitted percentage of WIZ-HiBit remaining at 25 uM, read-out: WIZ Amax; for DC50: WIZ HiBit assay in 293T cells, 10-point, 5-fold dose response, highest concentration 25 μM, about 18 hours, read-out: WIZ AC50

Chain of HiBit-WIZ fusion protein (O95785 whole entry, the tested form may be a part): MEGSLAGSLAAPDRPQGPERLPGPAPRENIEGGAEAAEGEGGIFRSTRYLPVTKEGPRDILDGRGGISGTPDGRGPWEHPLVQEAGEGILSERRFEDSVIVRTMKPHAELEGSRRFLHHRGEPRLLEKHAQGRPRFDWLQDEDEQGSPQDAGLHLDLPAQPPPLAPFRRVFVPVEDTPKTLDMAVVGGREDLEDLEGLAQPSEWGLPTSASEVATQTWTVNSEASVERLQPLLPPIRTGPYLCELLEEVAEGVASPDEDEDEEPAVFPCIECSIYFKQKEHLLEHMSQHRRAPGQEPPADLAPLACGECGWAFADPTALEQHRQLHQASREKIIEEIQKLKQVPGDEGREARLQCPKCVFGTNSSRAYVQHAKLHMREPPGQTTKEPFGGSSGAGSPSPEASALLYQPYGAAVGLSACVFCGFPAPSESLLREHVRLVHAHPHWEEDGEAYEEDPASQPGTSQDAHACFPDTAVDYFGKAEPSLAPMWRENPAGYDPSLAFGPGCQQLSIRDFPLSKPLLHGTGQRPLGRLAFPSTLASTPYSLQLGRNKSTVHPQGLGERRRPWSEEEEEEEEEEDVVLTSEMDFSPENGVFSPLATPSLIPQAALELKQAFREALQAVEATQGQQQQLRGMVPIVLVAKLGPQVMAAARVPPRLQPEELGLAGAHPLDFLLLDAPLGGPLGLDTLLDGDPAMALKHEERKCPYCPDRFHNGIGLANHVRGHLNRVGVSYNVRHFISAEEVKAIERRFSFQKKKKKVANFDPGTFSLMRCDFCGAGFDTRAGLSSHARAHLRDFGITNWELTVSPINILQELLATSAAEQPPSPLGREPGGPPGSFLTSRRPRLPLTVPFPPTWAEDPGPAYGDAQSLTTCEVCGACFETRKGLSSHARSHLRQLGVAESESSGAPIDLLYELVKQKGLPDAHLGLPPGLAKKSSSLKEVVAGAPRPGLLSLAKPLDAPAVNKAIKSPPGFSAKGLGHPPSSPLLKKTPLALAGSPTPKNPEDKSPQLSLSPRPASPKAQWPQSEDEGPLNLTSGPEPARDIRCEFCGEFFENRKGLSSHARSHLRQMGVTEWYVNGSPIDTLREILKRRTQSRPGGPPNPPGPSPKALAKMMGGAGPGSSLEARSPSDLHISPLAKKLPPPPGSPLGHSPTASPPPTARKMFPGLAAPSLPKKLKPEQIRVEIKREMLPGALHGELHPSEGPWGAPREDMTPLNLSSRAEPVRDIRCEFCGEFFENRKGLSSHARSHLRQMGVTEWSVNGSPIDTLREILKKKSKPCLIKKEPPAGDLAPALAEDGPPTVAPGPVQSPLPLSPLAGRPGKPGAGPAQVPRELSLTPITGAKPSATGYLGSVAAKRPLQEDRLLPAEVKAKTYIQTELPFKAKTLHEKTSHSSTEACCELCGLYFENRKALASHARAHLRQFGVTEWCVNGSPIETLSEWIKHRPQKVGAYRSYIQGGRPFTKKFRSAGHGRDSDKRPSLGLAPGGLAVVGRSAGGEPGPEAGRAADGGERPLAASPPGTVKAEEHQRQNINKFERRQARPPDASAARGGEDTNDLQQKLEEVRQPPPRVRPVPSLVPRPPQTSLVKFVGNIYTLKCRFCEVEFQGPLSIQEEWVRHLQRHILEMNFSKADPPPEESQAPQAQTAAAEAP
Chain of HiBit-WIZ fusion protein (Q96SW2 whole entry, the tested form may be a part): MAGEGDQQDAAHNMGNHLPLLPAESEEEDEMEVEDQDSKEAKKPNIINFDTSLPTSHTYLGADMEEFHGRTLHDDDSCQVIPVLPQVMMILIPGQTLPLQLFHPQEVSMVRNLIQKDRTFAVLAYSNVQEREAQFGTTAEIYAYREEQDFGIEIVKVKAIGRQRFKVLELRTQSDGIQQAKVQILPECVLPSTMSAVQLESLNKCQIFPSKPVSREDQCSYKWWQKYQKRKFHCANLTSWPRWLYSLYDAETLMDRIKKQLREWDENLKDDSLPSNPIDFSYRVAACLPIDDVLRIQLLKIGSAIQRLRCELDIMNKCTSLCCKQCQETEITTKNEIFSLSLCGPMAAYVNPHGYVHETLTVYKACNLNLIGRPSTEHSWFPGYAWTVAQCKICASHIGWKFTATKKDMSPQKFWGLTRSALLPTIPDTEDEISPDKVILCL
Chain of HiBit-WIZ fusion protein (Q16531 whole entry partner, the tested form may be a part): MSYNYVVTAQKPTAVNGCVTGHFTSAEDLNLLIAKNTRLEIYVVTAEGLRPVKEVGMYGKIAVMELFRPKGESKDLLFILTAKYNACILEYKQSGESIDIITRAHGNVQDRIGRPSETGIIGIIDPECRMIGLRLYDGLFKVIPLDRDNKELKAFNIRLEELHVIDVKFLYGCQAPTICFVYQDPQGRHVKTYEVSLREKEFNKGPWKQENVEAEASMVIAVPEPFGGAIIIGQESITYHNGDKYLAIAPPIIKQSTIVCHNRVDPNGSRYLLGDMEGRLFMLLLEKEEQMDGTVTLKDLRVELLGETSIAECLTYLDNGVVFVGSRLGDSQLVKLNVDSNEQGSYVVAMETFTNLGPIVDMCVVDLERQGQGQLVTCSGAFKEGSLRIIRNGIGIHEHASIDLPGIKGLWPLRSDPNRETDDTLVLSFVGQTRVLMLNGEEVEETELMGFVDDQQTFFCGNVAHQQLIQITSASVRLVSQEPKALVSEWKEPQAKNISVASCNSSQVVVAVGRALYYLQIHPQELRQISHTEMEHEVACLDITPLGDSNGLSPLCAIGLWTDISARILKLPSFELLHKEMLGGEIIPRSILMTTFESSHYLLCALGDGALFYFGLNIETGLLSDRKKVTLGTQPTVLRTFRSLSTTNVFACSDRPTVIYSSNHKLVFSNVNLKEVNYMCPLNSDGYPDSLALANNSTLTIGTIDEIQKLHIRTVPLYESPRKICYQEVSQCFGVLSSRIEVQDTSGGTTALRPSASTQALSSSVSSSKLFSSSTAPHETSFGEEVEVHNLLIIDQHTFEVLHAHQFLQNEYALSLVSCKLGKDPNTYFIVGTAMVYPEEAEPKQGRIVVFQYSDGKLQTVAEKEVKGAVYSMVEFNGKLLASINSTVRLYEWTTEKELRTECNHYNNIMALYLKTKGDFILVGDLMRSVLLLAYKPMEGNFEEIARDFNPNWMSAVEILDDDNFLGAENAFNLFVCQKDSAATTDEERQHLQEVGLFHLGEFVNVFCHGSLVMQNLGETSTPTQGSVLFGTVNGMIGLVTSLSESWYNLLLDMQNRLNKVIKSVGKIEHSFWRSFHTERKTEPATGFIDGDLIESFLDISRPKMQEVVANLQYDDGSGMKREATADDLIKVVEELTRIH

Dmax	remaining activity at up to 25 µM	DC50	Structure (SMILES)
6.8%	93.2%	> 25 µM	COc1ccc(C(=O)N2CCCC[C@H]2COc2ccc3c(c2)CN(C2CCC(=O)NC2=O)C3=O)nn1 (stereo partly drawn) [Compound I-72gm]
26.4%	73.6%	> 25 µM	COc1cc(C(=O)N2CCCC[C@H]2COc2ccc3c(c2)CN(C2CCC(=O)NC2=O)C3=O)c(F)cn1 (stereo partly drawn) [Compound I-72gn]
14.4%	85.6%	> 25 µM	Cc1onc(-c2ccccc2)c1CC(=O)N1CCCC[C@H]1COc1ccc2c(c1)CN(C1CCC(=O)NC1=O)C2=O (stereo partly drawn) [Compound I-72gp]
57.9%	42.1%	7.39 µM	Cc1nn(-c2ccccc2)c(C)c1C(=O)N1CCCC[C@H]1COc1ccc2c(c1)CN(C1CCC(=O)NC1=O)C2=O (stereo partly drawn) [Compound I-72gs]
0.2%	99.8%	> 25 µM	C[C@H](CC(=O)N1CCCC[C@H]1COc1ccc2c(c1)CN(C1CCC(=O)NC1=O)C2=O)c1ccccc1 (stereo partly drawn) [Compound I-72gu]
19.1%	80.9%	> 25 µM	CCn1cc(C(=O)N2CCCC[C@H]2COc2ccc3c(c2)CN(C2CCC(=O)NC2=O)C3=O)c(C)n1 (stereo partly drawn) [Compound I-72gw]
44.1%	55.9%	> 25 µM	Cc1nnc(-c2ccc(C(=O)N3CCCC[C@H]3COc3ccc4c(c3)CN(C3CCC(=O)NC3=O)C4=O)cc2)o1 (stereo partly drawn) [Compound I-72gy]
13.7%	86.3%	> 25 µM	Cn1nccc1-c1cccc(C(=O)N2CCCC[C@H]2COc2ccc3c(c2)CN(C2CCC(=O)NC2=O)C3=O)c1 (stereo partly drawn) [Compound I-72gz]
6.8%	93.2%	> 25 µM	O=C1CCC(N2Cc3cc(OC[C@@H]4CCCCN4C(=O)c4cccc(N5CCCC5=O)c4)ccc3C2=O)C(=O)N1 (stereo partly drawn) [Compound I-72hf]
13.8%	86.2%	> 25 µM	Cc1cc(O)cc(C(=O)N2CCCC[C@H]2COc2ccc3c(c2)CN(C2CCC(=O)NC2=O)C3=O)c1 (stereo partly drawn) [Compound I-72hi]
0.7%	99.3%	> 25 µM	CC(C)(C)c1cc(CC(=O)N2CCCC[C@H]2COc2ccc3c(c2)CN(C2CCC(=O)NC2=O)C3=O)on1 (stereo partly drawn) [Compound I-72hj]
9.2%	90.8%	> 25 µM	COc1ccc(CC(=O)N2CCCC[C@H]2COc2ccc3c(c2)CN(C2CCC(=O)NC2=O)C3=O)cn1 (stereo partly drawn) [Compound I-72hk]
13.3%	86.7%	> 25 µM	O=C1CCC(N2Cc3cc(OC[C@@H]4CCCCN4C(=O)c4ccc5nccnc5c4)ccc3C2=O)C(=O)N1 (stereo partly drawn) [Compound I-72hq]
5.1%	94.9%	> 25 µM	O=C1CCC(N2Cc3cc(OC[C@@H]4CCCCN4C(=O)c4cccc(OC(F)F)c4)ccc3C2=O)C(=O)N1 (stereo partly drawn) [Compound I-72hx]
11%	89%	> 25 µM	Cn1ccc(-c2cccc(C(=O)N3CCCC[C@H]3COc3ccc4c(c3)CN(C3CCC(=O)NC3=O)C4=O)c2)n1 (stereo partly drawn) [Compound I-72id]
68.7%	31.3%	2.77 µM	CN1CCOc2cc(C(=O)N3CCCC[C@H]3COc3ccc4c(c3)CN(C3CCC(=O)NC3=O)C4=O)cnc21 (stereo partly drawn) [Compound I-72ij]
35.7%	64.3%	> 25 µM	Cn1nc(C(=O)N2CCCC[C@H]2COc2ccc3c(c2)CN(C2CCC(=O)NC2=O)C3=O)cc1-c1ccccc1 (stereo partly drawn) [Compound I-72ir]
0.9%	99.1%	> 25 µM	COc1cc(OC)nc(C(=O)N2CCCC[C@H]2COc2ccc3c(c2)CN(C2CCC(=O)NC2=O)C3=O)n1 (stereo partly drawn) [Compound I-72is]
5.9%	94.1%	> 25 µM	CCN1CCC[C@@H](C(=O)N2CCCC[C@H]2COc2ccc3c(c2)CN(C2CCC(=O)NC2=O)C3=O)C1 (stereo partly drawn) [Compound I-72it]
71.7%	28.3%	2 µM	Cc1cc(-n2c(C)cc(C(=O)N3CCCC[C@H]3COc3ccc4c(c3)CN(C3CCC(=O)NC3=O)C4=O)c2C)no1 (stereo partly drawn) [Compound I-72iu]
2.2%	97.8%	> 25 µM	O=C1CCC(N2Cc3cc(OC[C@@H]4CCCCN4C(=O)C45CC(F)(C4)C5)ccc3C2=O)C(=O)N1 (stereo partly drawn) [Compound I-72iv]
13%	87%	> 25 µM	O=C1CCC(N2Cc3cc(OC[C@@H]4CCCCN4C(=O)c4[nH]nc5c4CCCC5)ccc3C2=O)C(=O)N1 (stereo partly drawn) [Compound I-72ix]
21.5%	78.5%	> 25 µM	O=C1CCC(N2Cc3cc(OC[C@@H]4CCCCN4C(=O)c4cccc5cnccc45)ccc3C2=O)C(=O)N1 (stereo partly drawn) [Compound I-72j]
0.3%	99.7%	> 25 µM	O=C1CCC(N2Cc3cc(OC[C@@H]4CCCCN4C(=O)CCn4c(=O)oc5ccccc54)ccc3C2=O)C(=O)N1 (stereo partly drawn) [Compound I-72jb]
34.2%	65.8%	> 25 µM	CCc1ncc(C(=O)N2CCCC[C@H]2COc2ccc3c(c2)CN(C2CCC(=O)NC2=O)C3=O)s1 (stereo partly drawn) [Compound I-72jf]

More lines, now with the values behind:

Structure (SMILES)	Dmax	remaining activity at up to 25 µM	DC50
Cc1cc(-c2onc(C)c2C(=O)N2CCCC[C@H]2COc2ccc3c(c2)CN(C2CCC(=O)NC2=O)C3=O)no1 (stereo partly drawn) [Compound I-72ep]	77.8%	22.2%	1.35 µM
CC#CCCOc1ccc(C(=O)N2CCCC[C@H]2COc2ccc3c(c2)CN(C2CCC(=O)NC2=O)C3=O)cc1 (stereo partly drawn) [Compound I-72ew]	54.9%	45.1%	14.6 µM
CC(C)n1nccc1C(=O)N1CCCC[C@H]1COc1ccc2c(c1)CN(C1CCC(=O)NC1=O)C2=O (stereo partly drawn) [Compound I-72ez]	0%	100%	> 25 µM
O=C1CCC(N2Cc3cc(OC[C@@H]4CCCCN4C(=O)[C@@H]4CCCCN4C4CC4)ccc3C2=O)C(=O)N1 (stereo partly drawn) [Compound I-72f]	0.9%	99.1%	> 25 µM
Cc1ccnc(-c2cc(C(=O)N3CCCC[C@H]3COc3ccc4c(c3)CN(C3CCC(=O)NC3=O)C4=O)ccn2)c1 (stereo partly drawn) [Compound I-72fa]	5.1%	94.9%	> 25 µM
CC(C)N1CCC(CC(=O)N2CCCC[C@H]2COc2ccc3c(c2)CN(C2CCC(=O)NC2=O)C3=O)CC1 (stereo partly drawn) [Compound I-72fe]	18.5%	81.5%	> 25 µM
O=C1CCC(N2Cc3cc(OC[C@@H]4CCCCN4C(=O)c4cnc(N5CCCCC5)s4)ccc3C2=O)C(=O)N1 (stereo partly drawn) [Compound I-72fi]	70.2%	29.8%	2.05 µM
O=C1CCC(N2Cc3cc(OC[C@@H]4CCCCN4C(=O)c4ccc(-c5ccc(F)cc5)cn4)ccc3C2=O)C(=O)N1 (stereo partly drawn) [Compound I-72fj]	63.7%	36.3%	3.91 µM
O=C1CCC(N2Cc3cc(OC[C@@H]4CCCCN4C(=O)[C@H]4CCOC4)ccc3C2=O)C(=O)N1 (stereo partly drawn) [Compound I-72fn]	2.6%	97.4%	> 25 µM
Cc1nc(C(=O)N2CCCC[C@H]2COc2ccc3c(c2)CN(C2CCC(=O)NC2=O)C3=O)c(C)s1 (stereo partly drawn) [Compound I-72fp]	9.5%	90.5%	> 25 µM
O=C1CCC(N2Cc3cc(OC[C@@H]4CCCCN4C(=O)c4snnc4-c4ccccc4)ccc3C2=O)C(=O)N1 (stereo partly drawn) [Compound I-72fq]	0.3%	99.7%	> 25 µM
O=C1CCC(N2Cc3cc(OC[C@@H]4CCCCN4C(=O)CCCn4cnnc4)ccc3C2=O)C(=O)N1 (stereo partly drawn) [Compound I-72fv]	1.1%	98.9%	> 25 µM
COc1ccc(C(C)(C)C(=O)N2CCCC[C@H]2COc2ccc3c(c2)CN(C2CCC(=O)NC2=O)C3=O)cc1 (stereo partly drawn) [Compound I-72fz]	9.1%	90.9%	> 25 µM
O=C1CCC(N2Cc3cc(OC[C@@H]4CCCCN4C(=O)c4cccnc4N4CCCC4)ccc3C2=O)C(=O)N1 (stereo partly drawn) [Compound I-72gb]	23.9%	76.1%	> 25 µM
CC1(c2ccc(C(=O)N3CCCC[C@H]3COc3ccc4c(c3)CN(C3CCC(=O)NC3=O)C4=O)cc2)COC1 (stereo partly drawn) [Compound I-72gc]	58.3%	41.7%	10.1 µM
CC(C)c1cc(C(=O)N2CCCC[C@H]2COc2ccc3c(c2)CN(C2CCC(=O)NC2=O)C3=O)n(C)n1 (stereo partly drawn) [Compound I-72gd]	80.1%	19.9%	0.919 µM
CN(C)c1cccc(C(=O)N2CCCC[C@H]2COc2ccc3c(c2)CN(C2CCC(=O)NC2=O)C3=O)c1 (stereo partly drawn) [Compound I-72gg]	24%	76%	> 25 µM
N#Cc1ccc(CCC(=O)N2CCCC[C@H]2COc2ccc3c(c2)CN(C2CCC(=O)NC2=O)C3=O)cc1 (stereo partly drawn) [Compound I-72gh]	10.9%	89.1%	> 25 µM
CC(C)c1ccccc1C(=O)N1CCCC[C@H]1COc1ccc2c(c1)CN(C1CCC(=O)NC1=O)C2=O (stereo partly drawn) [Compound I-72gi]	14.9%	85.1%	> 25 µM
O=C1CCC(N2Cc3cc(OC[C@@H]4CCCCN4C(=O)C4CCCOC4)ccc3C2=O)C(=O)N1 (stereo partly drawn) [Compound I-72gj]	2.3%	97.7%	> 25 µM
O=C1CCC(N2Cc3cc(OC[C@@H]4CCCCN4C(=O)CCc4c[nH]cn4)ccc3C2=O)C(=O)N1 (stereo partly drawn) [Compound I-72gk]	6.5%	93.5%	> 25 µM
